Common to all, as to assay type: in vivo
Assay [1] relates to wild buckwheat (Polygonum convolvulus). Description: Postemergence herbicidal activity. The note with it: for inhibition at 125 ppm / pest or weed control at 125 ppm / pest or weed control at 250 ppm: Fallopia convolvulus, post-emergence, 336 h; for inhibition at 125 ppm: Table 2, read-out: POSTMERGENCE HERBICIDAL ACTIVITY % CONTROL POLCO; for pest or weed control at 125 ppm / pest or weed control at 250 ppm: read-out: Post-emergent % Control POLCO. In outline:
(§1)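 Foliar spray at 1st–2nd true leaf; 1 ppm ≈ 1 g/Ha. Carrier: acetone/water/IPA/DMSO plus crop oil concentrate and Triton X-155. Greenhouse, sub-irrigated. Visual rating vs untreated at 2 wk, 0 = no injury, 100 = complete kill.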

Assay [2] relates to chickweed (Stellaria media). The assay can be described thus: Postemergence herbicidal activity. The conditions noted are these: for inhibition at 125 ppm / pest or weed control at 125 ppm / pest or weed control at 250 ppm: Stellaria media, post-emergence, 336 h; for inhibition at 125 ppm: Table 2, read-out: POSTMERGENCE HERBICIDAL ACTIVITY % CONTROL STEME; for pest or weed control at 125 ppm / pest or weed control at 250 ppm: read-out: Post-emergent % Control STEME. In outline: as §1

For assay [3], the system named is cocklebur (Xanthium strumarium). Description: Postemergence herbicidal activity. The note with it: Xanthium strumarium, post-emergence, 336 h; for inhibition at 125 ppm: Table 2, read-out: POSTMERGENCE HERBICIDAL ACTIVITY % CONTROL XANST; for pest or weed control at 125 ppm / pest or weed control at 250 ppm: read-out: Post-emergent % Control XANST; for pest or weed control at 250 ppm: rate 250 ppm. In short, it runs like this:
as §1

The subject of assay [4] is Canada thistle (Cirsium arvense). The assay can be described thus: Range & Pasture Crop Testing (postemergence track sprayer). The note with it: for GR80 CIRAR: Table 10, clover pasture, postemergence. In outline:
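Postemergence track-sprayer application at 187 L/ha, compounds formulated in 97:3 acetone:DMSO with 0.25% X-77, five rates (X serially diluted to 1/16×). Visual percent control (0–100 scale, burn down) rated 3 weeks after treatment; GR50/GR80 derived by probit analysis.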

Assay [5] relates to pigweed (Amaranthus retroflexus). The assay can be described thus: Preemergence herbicidal activity. The note with it: Amaranthus retroflexus, 504 h; for pest or weed control at 280 ppm / pest or weed control at 560 ppm: read-out: % Control AMARE; for inhibition at 35 g/ha: pre-emergence, Table 7, rate 35 g/Ha; for pest or weed control at 560 ppm: rate 560 ppm. In short, it runs like this: (§2)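 Percent injury or lack of germination was judged by eye against untreated pots at 3 weeks, where 100 means complete kill. Before emergence, seeded 70:30 loam-sand soil received a surface spray of compound in water with 0.1% Tween 155 (acetone/DMSO carrier); greenhouse 15 h photoperiod, about 22-29° C.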

For assay [6], the system named is morningglory (Ipomoea hederacea). Description: Preemergence herbicidal activity. The conditions noted are these: Ipomoea, 504 h, read-out: % Control IPOHE; for pest or weed control at 560 ppm: rate 560 ppm. In outline:
as §2

For assay [7], the system named is velvetleaf (Abutilon theophrasti). The assay can be described thus: Preemergence herbicidal activity. The note with it: Abutilon theophrasti, 504 h; for pest or weed control at 280 ppm / pest or weed control at 560 ppm: read-out: % Control ABUTH; for inhibition at 35 g/ha: pre-emergence, Table 7, rate 35 g/Ha; for pest or weed control at 560 ppm: rate 560 ppm. In short, it runs like this:
as §2

[8] abbreviates: Table 1, rate 125 ppm, visual, after 2 weeks.
[9] abbreviates: Table 6 (headed Post-emergent; text: preemergence), rate 280 ppm, after 3 weeks.
Setting [10] is: after 3 weeks, read-out: PREEMERGENCE HERBICIDAL ACTIVITY % CONTROL AMARE.
Setting [11] is: after 3 weeks, read-out: PREEMERGENCE HERBICIDAL ACTIVITY % CONTROL ABUTH.
Setting [12] is: Table 1, rate 250 ppm, visual, after 2 weeks.
The mark [13] stands for this setting: Table 6 (headed Post-emergent; text: preemergence), after 3 weeks.

Each structure is given as a SMILES string. Read-outs that look alike come from different tables or passages of the source.

Consider `Nc1cc(Cl)nc(C(=O)O)c1Cl` [Compound 1, 4-Amino-3,6-dichloropyridine-2-carboxylic acid], for which the inhibition at 125 ppm in assay [1] (read-out: PO[…] % CONTROL POLCO, rate 125 ppm, after 2 weeks) worked out at 100%; in assay [2] (read-out: PO[…] % CONTROL STEME, rate 125 ppm, after 2 weeks), 90%; in assay [3] (read-out: PO[…] % CONTROL XANST, rate 125 ppm, after 2 weeks), 100%. Besides, the pest or weed control at 125 ppm in assay [1] was 100%; in assay [2] it was 100%; in assay [3], 95%. Also, the “Post-emergent GR80 CIRAR” value in assay [4] (Table 8, salts of Compound 1, 3 week evaluation) worked out at 47 g/Ha. Also, the pest or weed control at 280 ppm in assay [5], in assay [6] and in assay [7] was 100% in each case. The inhibition at 35 g/ha in assay [5] (read-out: PR[…] % CONTROL AMARE, after 3 weeks) amounted to 88%; in assay [7] (read-out: PR[…] % CONTROL ABUTH, after 3 weeks), 95%.
As for `COC(=O)c1nc(Cl)cc(N)c1Cl` [Compound 3, methyl 4-amino-3,6-dichloropyridine-2-carboxylate], the pest or weed control at 125 ppm in assay [1] (setting [8]), in assay [2] (setting [8]) and in assay [3] (setting [8]) was 100% each time. Besides, in assay [4] (Table 9, rate 70 g/Ha, 3 weeks after treatment), the “Post-emergent Evaluation - % control CIRAR” value was found to be 90%. Besides, the “GR80 CIRAR” value in assay [4] is reported as below 17.5 g/ha. The pest or weed control at 280 ppm in assay [5] (setting [9]), in assay [6] (setting [9]) and in assay [7] (setting [9]) was 100% each time. Besides, the values for the inhibition at 35 g/ha in assay [5] (setting [10]) and in assay [7] (setting [11]) were 90% and 95%, respectively.
With `CCOC(=O)c1nc(Cl)cc(N)c1Cl` [Compound 4, ethyl 4-amino-3,6-dichloropyridine-2-carboxylate], the pest or weed control at 125 ppm in assay [1] (setting [8]), in assay [2] (setting [8]) and in assay [3] (setting [8]) was 100% each time. Moreover, the inhibition at 125 ppm in assay [1] (rate 125 ppm, after 2 weeks) turned out to be 100%; in assay [2] (rate 125 ppm, after 2 weeks), 70%; in assay [3] (rate 125 ppm, after 2 weeks), 100%. Besides, the “GR80 CIRAR” value in assay [4] is reported as below 17.5 g/ha. The pest or weed control at 280 ppm in assay [5] (setting [9]), in assay [6] (setting [9]) and in assay [7] (setting [9]) was 100% throughout.
As to `Nc1cc(Br)nc(C(=O)O)c1Cl` [Compound 14, 4-Amino-6-bromo-3-chloropyridine-2-carboxylic acid], the pest or weed control at 250 ppm in assay [1] (setting [12]) was 50%; in assay [2] (setting [12]) it was 90%; in assay [3] (Table 1, visual, after 2 weeks), 85%. The inhibition at 125 ppm in assay [1] (rate 125 ppm, after 2 weeks) came to 100%; in assay [2] (rate 125 ppm, after 2 weeks), 65%; in assay [3] (rate 125 ppm, after 2 weeks), 100%. For the same compound, the “Post-emergent Evaluation - % control POLCO” value in assay [1] (Table 5, rate 250 ppm) is recorded as 90%. The “Post-emergent Evaluation - % control STEME” value in assay [2] (Table 5, rate 250 ppm) stood at 70%. Besides, the pest or weed control at 560 ppm in assay [5] (setting [13]) was 90%; in assay [6] (setting [13]), 100%; in assay [7] (setting [13]), 100%. The inhibition at 35 g/ha in assay [5] (setting [10]) and in assay [7] (setting [11]) was 100% in each case.
In the case of `Nc1c(F)c(Cl)nc(C(=O)O)c1Cl` [Compound 19, 4-Amino-3,6-dichloro-5-fluoropyridine-2-carboxylic acid], the figures for the pest or weed control at 125 ppm in assay [1] (setting [8]), in assay [2] (setting [8]) and in assay [3] (setting [8]) were 100%, 95% and 95%, respectively. Besides, the inhibition at 125 ppm was determined as 100% in assay [1] (rate 125 ppm, after 2 weeks); 60% in assay [2] (rate 125 ppm, after 2 weeks); 95% in assay [3] (rate 125 ppm, after 2 weeks). Also, the pest or weed control at 560 ppm in assay [5] (setting [13]), in assay [6] (setting [13]) and in assay [7] (setting [13]) was 100% each time.
Take `COc1c(C(=O)O)nc(Br)c(Cl)c1N` [Compound 42, 4-Amino-6-bromo-5-chloro-3-methoxypyridine-2-carboxylic acid]: the pest or weed control at 250 ppm came out at 90% in assay [1] (setting [12]); 90% in assay [2] (setting [12]); 85% in assay [3] (Table 1, visual, after 2 weeks). For the same compound, the pest or weed control at 560 ppm in assay [5] (setting [13]), in assay [6] (setting [13]) and in assay [7] (setting [13]) was 100% throughout. The inhibition at 35 g/ha in assay [5] (setting [10]) came to 60%; in assay [7] (setting [11]), 80%.

For the origin of these results see US20010047099A1, “4-aminopicolinates and their use as herbicides” (priority 2000, published 2001).
